Test results published in PMC7549094 (Journal of Medicinal Chemistry, 2020).

Tests used:
in vivo = conditions: Balb/c, mouse, plasma
Description: In Vivo PK Studies in Mice.
The solution was filtered using a 0.45 m syringe filter before dosing. Two male Balb/c mice were administered 1 intravenously via the lateral tail
vein at 5 mg/kg with a dose volume of 2.0 mL/kg. 1 was also formulated in a suspension of 0.5%
methylcellulose with 0.5% Tween 80 (0.5% MC/0.5% Tw80) in water at 2.5 mg/mL. A group of mice
(n=3) were administered 1 orally via gavage at 20 mg/kg with a dose volume of 8.0 mL/kg.
The mouse blood samples were centrifuged to separate plasma and the plasma samples were frozen at -
In Vivo PK Studies in Rats.
Two male Wistar rats were administered
1 intravenously via the lateral tail vein at 3 mg/kg with a dose volume of 1.0 mL/kg. 1 was also formulated
in a suspension of 0.5% methylcellulose with 0.5% Tween 80 (0.5% MC/0.5% Tw80) in water at 2.0
mg/mL. The second group of rats (n=3) were administered 1 orally via gavage at 10 mg/kg in suspension
with a dose volume of 5.0 mL/kg. Six blood samples of 100 μL each were collected serially from each
animal via the saphenous vein up to 24 hours after dosing. The rat blood samples were centrifuged to
separate plasma and the plasma samples were frozen at -20°C until analysis.
In Vivo PK Studies in Dogs.
The solution was filtered using a 0.45 m syringe filter before dosing. Three male Beagle dogs were administered 1 intravenously via saphenous
vein at 0.3 mg/kg with a dose volume of 0.1 mL/kg. 1 was also formulated in a suspension of 0.5%
methylcellulose with 0.5% Tween 80 (0.5%MC/0.5% Tween 80) in water at 1.0 mg/mL. The second
group of male dogs (n=2) were administered 1- orally via gavage at 1.0 mg/kg with a dose volume of 1.0
mL/kg. Seven blood samples of 250 µL each were collected serially from each animal via the jugular vein
The dog blood samples were centrifuged to separate plasma and the plasma
samples were frozen at -20 °C until analysis.

hr Al1A ag = biological target: T1, hr Al1A ag (Homo sapiens, UniProt P35348); experiment: receptor profile (Table S4); format: biochemical
T1 sequence (P35348 1-466): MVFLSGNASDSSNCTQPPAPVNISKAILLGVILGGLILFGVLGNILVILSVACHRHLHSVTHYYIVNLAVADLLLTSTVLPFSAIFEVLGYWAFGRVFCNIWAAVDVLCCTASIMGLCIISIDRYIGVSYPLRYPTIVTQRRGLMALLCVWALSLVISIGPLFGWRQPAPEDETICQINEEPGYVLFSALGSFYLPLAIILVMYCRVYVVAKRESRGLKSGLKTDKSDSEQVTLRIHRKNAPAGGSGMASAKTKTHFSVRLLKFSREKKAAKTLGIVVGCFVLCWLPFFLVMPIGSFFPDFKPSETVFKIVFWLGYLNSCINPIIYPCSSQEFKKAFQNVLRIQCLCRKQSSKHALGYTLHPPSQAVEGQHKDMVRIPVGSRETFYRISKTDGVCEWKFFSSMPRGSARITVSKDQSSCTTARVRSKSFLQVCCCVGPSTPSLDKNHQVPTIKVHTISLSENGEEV

hr H1 = hr H1 (Homo sapiens, UniProt P35367); experiment: receptor profile (Table S4); format: binding
hr H3 = hr H3 (Homo sapiens, UniProt Q9Y5N1); experiment: receptor profile (Table S4); format: binding
hr DAT = hr DAT (Homo sapiens, UniProt Q01959); experiment: receptor profile (Table S4); format: binding
Sequence of hr DAT (Q01959 whole entry): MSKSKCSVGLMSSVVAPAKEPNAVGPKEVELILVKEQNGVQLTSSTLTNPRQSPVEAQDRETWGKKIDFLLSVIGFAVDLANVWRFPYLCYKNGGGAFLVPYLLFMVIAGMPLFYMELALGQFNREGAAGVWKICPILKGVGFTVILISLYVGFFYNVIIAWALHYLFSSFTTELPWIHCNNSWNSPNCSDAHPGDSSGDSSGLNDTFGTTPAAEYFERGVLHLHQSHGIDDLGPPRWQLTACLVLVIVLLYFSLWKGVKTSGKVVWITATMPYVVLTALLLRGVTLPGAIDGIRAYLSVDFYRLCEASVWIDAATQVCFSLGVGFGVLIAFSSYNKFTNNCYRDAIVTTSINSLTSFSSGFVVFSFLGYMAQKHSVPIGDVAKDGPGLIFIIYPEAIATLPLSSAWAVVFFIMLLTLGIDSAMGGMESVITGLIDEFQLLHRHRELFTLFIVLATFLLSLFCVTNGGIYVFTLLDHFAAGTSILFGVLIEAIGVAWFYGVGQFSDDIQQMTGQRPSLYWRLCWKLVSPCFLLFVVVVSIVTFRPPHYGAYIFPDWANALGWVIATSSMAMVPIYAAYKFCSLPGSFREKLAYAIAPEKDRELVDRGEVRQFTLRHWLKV

Sequence of hr H1 (P35367 whole entry): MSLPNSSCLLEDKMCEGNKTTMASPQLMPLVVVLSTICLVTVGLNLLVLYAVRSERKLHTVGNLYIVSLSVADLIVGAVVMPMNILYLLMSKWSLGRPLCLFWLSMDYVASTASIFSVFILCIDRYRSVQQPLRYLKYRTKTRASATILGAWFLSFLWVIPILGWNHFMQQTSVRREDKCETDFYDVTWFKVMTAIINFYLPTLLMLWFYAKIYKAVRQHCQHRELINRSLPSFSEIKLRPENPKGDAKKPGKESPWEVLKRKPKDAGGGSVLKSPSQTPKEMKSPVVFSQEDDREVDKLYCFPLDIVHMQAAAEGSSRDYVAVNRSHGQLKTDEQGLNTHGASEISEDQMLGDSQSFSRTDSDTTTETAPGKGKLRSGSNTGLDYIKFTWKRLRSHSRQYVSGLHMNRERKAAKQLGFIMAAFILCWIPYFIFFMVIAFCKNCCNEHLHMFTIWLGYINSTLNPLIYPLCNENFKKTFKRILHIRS
Sequence of hr H3 (Q9Y5N1 whole entry): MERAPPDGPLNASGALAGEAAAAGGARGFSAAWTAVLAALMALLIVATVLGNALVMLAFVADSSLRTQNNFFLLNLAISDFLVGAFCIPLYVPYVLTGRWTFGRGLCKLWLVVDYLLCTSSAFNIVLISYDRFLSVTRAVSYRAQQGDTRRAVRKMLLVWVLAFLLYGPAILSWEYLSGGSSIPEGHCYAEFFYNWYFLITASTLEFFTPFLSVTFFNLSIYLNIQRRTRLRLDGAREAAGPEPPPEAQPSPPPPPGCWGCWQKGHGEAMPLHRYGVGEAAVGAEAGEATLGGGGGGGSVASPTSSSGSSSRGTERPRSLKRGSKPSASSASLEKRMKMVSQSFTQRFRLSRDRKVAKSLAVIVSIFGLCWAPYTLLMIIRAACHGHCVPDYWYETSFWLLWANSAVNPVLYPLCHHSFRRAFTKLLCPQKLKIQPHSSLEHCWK

In the case of Cc1nc(C)c(C(=O)Nc2ccc(F)c(-c3nc4ncc(-c5ncccc5C)cn4n3)c2)o1 [compound 1, N-(4-Fluoro-3-(6-(3-methylpyridin-2-yl)-[1,2,4]triazolo[1,5-a]pyrimidin-2-yl)phenyl)-2,4-dimethyloxazole-5-carboxamide], the bioavailability (in vivo; po, 20 mg/kg) is reported as 46%, the MRT (in vivo; male, iv, 5 mg/kg) is reported as 4.6 h and the Vd (in vivo; male, iv, 5 mg/kg) is reported as 0.63 L/kg. For the same molecule, the clearance (in vivo; male, iv, 5 mg/kg) was 2.3 mL/min/kg, the half-life (in vivo; male, iv, 5 mg/kg) was 3.3 h and the EC50/IC50 (hr Al1A ag; hr Al1A ag) was over 30 µM. The inhibition at 10 µM (hr Al1A ag; read-out: % inh/act @ 10 µM) was 0%, the inhibition at 30 µM (hr Al1A ag; read-out: % inh/act @ 30 µM) was 1% and the EC50/IC50 (hr H1; hr H1) was over 30 µM. For the same molecule, the inhibition at 10 µM (hr H1; read-out: % inh/act @ 10 µM) was 10%, the inhibition at 30 µM (hr H1; read-out: % inh/act @ 30 µM) was 24% and the EC50/IC50 (hr H3; hr H3) was over 30 µM. The inhibition at 10 µM (hr H3; read-out: % inh/act @ 10 µM) was 9%, the inhibition at 30 µM (hr H3; read-out: % inh/act @ 30 µM) was 14% and the EC50/IC50 (hr DAT; hr DAT) was over 30 µM. For the same molecule, the inhibition at 10 µM (hr DAT; read-out: % inh/act @ 10 µM) was 17% and the inhibition at 30 µM (hr DAT; read-out: % inh/act @ 30 µM) was 22%.
